Earlier results as cited in EP1608381B1, “THERAPEUTIC AND CONSMETIC APPLICATION FOR A COMPOSITION CONTAINING LYCOPENE” (Touche, Marie-José, priority 2002, dated 2003).
Values belong to the compound of their own block, whether it stands above or below them.

Assays:
[1] = relative to Bétacarotène

solubilité dans l'eau (eau): insoluble
solubilité dans l'éthanol (éthanol): soluble
SMILES: C=CCc1ccc(O)c(OC)c1 [EUGENOL, eugénol]

SMILES: CC(C)=CCC/C(C)=C/C=C/C(C)=C/C=C/C(C)=C/C=C/C=C(C)/C=C/C=C(C)/C=C/C=C(\C)CCC=C(C)C [lycopène, psi-psi-carotène]
effet sur les radicaux libres, fois plus que le Bétacarotène [1]: 2 fois

solubilité dans le chlorure de méthylène (chlorure de méthylène): facilement soluble
solubilité dans l'eau froide (eau froide): pratiquement insoluble
soluble dans p. d'alcool à 50° (parts of solvent, alcool à 50°): 10 p.
soluble dans p. d'huile d'olive (parts of solvent, huile d'olive): 12,5 p.
soluble dans p de vaseline (parts of solvent, vaseline): 200 p
SMILES: CCCCOC(=O)c1ccc(N)cc1 [Butoforme, p-aminobenzoate de n- butyle]
